Test results: patent publication US20090156473A1, “PHARMACEUTICAL COMPOSITION FOR THE TREATMENT OF VIRAL INFECTIONS AND/OR TUMOR DISEASES BY INHIBITING PROTEIN FOLDING AND PROTEIN BREAKDOWN” (Virologik GmbH, priority 2006, published 2009)

Columns and labels:
X4-trophic HI viruses = assay: HLAC model (human tonsil cells) infected with X4-trophic HI viruses, RT assay of supernatants; assay type: cell-based, HIV-1; settings: for virus replication of X4-trophic HI viruses (RT data): tonsil A; for X4-trophic HIV replication (RT data): tonsil B
Description: Human tonsils were macerated and transferred into 96-well plates. After one day of incubation, the cells were infected with X4-trophic HI viruses, mixed with the corresponding inhibitors and washed on the following day. These and also the subsequent steps are described in detail under Example 4c-d. At each kinetic point, 150 μL of medium was removed and stored at −80° C. until measurement at RT. The medium that was again added contained the inhibitor concentrations necessary for the special preparation.
After 15 days, the proportion of functional HI viruses formed was determined by means of RT assays (see Example 4e) of the stored supernatants.
Tonsil cells were cultivated in RPMI 1640 with 15% (V/V) fetal calf serum, 2 mM L-glutamine, 100 U/mL penicillin, 100 μg/mL streptomycin, 2.5 μg/mL Fungizone, 1 mM sodium pyrovate, 1% MEM non-essential amino acid solution and 50 μg/mL gentanamycin (“tonsil medium”).
To produce virus preparations, plasmid DNA of molecular HIV-1 DNA was transfected into HeLa cells using the calcium phosphate precipitation method. For this purpose, confluent cultures of HeLa cells (5×10^6 cells) were incubated with 25 μg of plasmid DNA in calcium phosphate crystals, produced according to a method of Graham and van der Eb (1973), then subjected to glycerol shock according to Gorman et al. (1982). To obtain concentrated virus preparations, the cell culture supernatants were harvested two days after transfection. Thereafter the cells as well as their constituents were separated by centrifugation (1000 g, 5 minutes, 4° C.) and filtration (0.45 μm pore size). Virus particles were pelleted by ultracentrifugation (Beckman SW55 rotor, 1.5 hours, 35,000 rpm, 10° C.) and then resuspended in 1 mL of DMEM medium. The virus preparations were sterilized by filtration (0.45 μm pore size) and were frozen in portions (−80° C.). Individual virus preparations were standardized by determination of the reverse transcriptase activity, specifically on the basis of an already described test (Willey et al., 1988), using [32P]-TTP incorporation into an oligo(dT)-poly(A) template.
The tonsil tissue was washed in PBS, then cleaned of blood clots and cut into pieces measuring 1 to 2 mm^2 with the scalpel. Individual cells were obtained by mechanical pressing through a filter gauze. Following centrifugation of the isolated cells (5 minutes, 1200 rpm), the cells were counted, seeded into 96-well plates and incubated overnight at 37° C. and 5% CO2. Infection of the cells was achieved by addition of 10 ng of X4-trophic HIV stocks and simultaneous application of the corresponding inhibitor concentrations. On the following day, 50 μL of supernatant was withdrawn (“1 dpi”) and stored at −80° C. Thereupon the cells were centrifuged (5 minutes, 1200 rpm) and a further 50 μL of supernatant was withdrawn. Following resuspension of the cells in 100 μL of tonsil medium, this washing step was repeated two times. Tonsil medium with the corresponding inhibitor concentrations was added and then the cells were re-incubated at 37° C. and 5% CO2. On days 3, 6, 9 and 12, 150 μL of medium was withdrawn and stored at −80° C., and 150 μL of medium with the corresponding inhibitor concentrations was added. On day 15, only 150 μL of supernatant was removed and stored at −80° C., after which the cells were discarded.
The tonsil supernatants stored at −80° C. were assayed by determination of the reverse transcriptase activity, specifically on the basis of an already described test (Willey et al., 1988), using [32P]-TTP incorporation into an oligo(dT)-poly(A) template.

[1] = system: HeLaSS6 cells transfected with subgenomic HIV-1 expression vector pNLenv1; assay: Time kinetics of Gag processing and virus release, Western blot of cell and virus fractions; assay type: cell-based; settings: 100 nM 17-AAG vs inhibitor-free medium
Description: Time kinetics were studied for biochemical analysis of the influence of 17-AAG on the kinetics of Gag processing and virus release. The experimental details of cultivation, transfection, media exchange and time kinetics are reported in Example 4a/b. For this purpose there were used cultures of HeLaSS6 cells that had been transfected with pNLenv1 (Schubert et al., 1995). Following incubation in 17-AAG-containing medium (100 nM 17-AAG) or inhibitor-free medium, the kinetic studies were begun after distinct washing steps and aliquoting of the preparations. Aliquot cell cultures were taken at each time and separated into cell, virus and cell-culture supernatant fractions by centrifugation. The HIV proteins were separated by SDS PAGE, transferred onto PVDF membranes and then made visible on x-ray films by antibody-mediated chemiluminescence.
HeLa cells (ATCC CCL2) were cultivated in Dulbeccos' modified Eagle's medium (DMEM) with 10% fetal calf serum, 2 mM L-glutamine, 100 U/mL penicillin and 100 μg/mL streptomycin.
HeLa cells (ATCC CCL2) were transfected using a mixture of pNLΔenv and lipofectamine2000 in OPTI-MEM. A media exchange was undertaken after 8 hours of incubation at 37° C. and 5% CO2. […] The HIV-specific and cell-specific proteins were detected via specific antibodies (to Hsp70; Hsp90; p24; PR55; β-actin). […]

Row | SMILES | virus replication of X4-trophic HI viruses (RT data) (X4-trophic HI viruses; single inhibitor at 1 nM) | X4-trophic HIV replication (RT data) (X4-trophic HI viruses; single inhibitor at 1 nM) | Gag processing in the virus fraction [1] | Hsp70 expression in the cell fraction [1] | virus replication of X4-trophic HI viruses in the HLAC model (X4-trophic HI viruses; summary statement of Example 3, RT assays after 15 days) | virus replication of X4-trophic HI viruses (RT data) (X4-trophic HI viruses; 10 nM 17-AAG alone) | X4-trophic HIV replication (RT data) (X4-trophic HI viruses; 10 nM 17-AAG alone)
1 | CC(C)C[C@H](NC(=O)[C@H](Cc1ccccc1)NC(=O)c1cnccn1)B(O)O [PS341] | not clearly influenced | did not exhibit any influence | – | – | – | – | –
2 | C=CCNC1=C2C[C@@H](C)C[C@H](OC)[C@H](O)[C@@H](C)/C=C(\C)[C@H](OC(N)=O)[C@@H](OC)/C=C\C=C(/C)C(=O)NC(=CC1=O)C2=O [17-AAG] | not clearly influenced | did not exhibit any influence | reduced Gag processing | intensified Hsp70 expression | inhibits the virus replication | not clearly influenced | distinct reduction of virus replication
